pIC50: −log10 of the molar value.
Key:
MV-4-11 = assay: Proliferation of FLT3-ITD-driven human AML cells; type: cell-based; conditions: compared with Dasatinib; FIG. 5B
Experimental: (§1) A. Dose response curve of IA-9 in treating ITD cells is presented. ITD cells in the presence (ITD+) or absence of IL-3 (ITD−) were treated with 10 μM and 3-fold dilution series of IA-9. B. Dose response curve of IA-9 in treating MV-4-11 cells is shown. […].

BaF3-BCR/ABL-T315I = target: T1, BaF3-BCR/ABL-T315I (Homo sapiens, UniProt P00519, T315I, cells depend on it); assay: Antiproliferative activity, kinase-dependent Ba/F3 cells (MTT/MTS); type: cell-based, murine; conditions: 48 hours, cell viability, read-out: BCR/ABL T315I IC50
T1 construct: fused on or other part: P11274 (Breakpoint cluster region protein)
Summary of the method: (§2)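 Murine Ba/F3 cells transformed with BCR/ABL (p210) or BCR/ABL-T315I, grown in RPMI/10% FCS without IL3, were seeded at 20,000 cells/well. Viability was read by MTT/MTS. IC50 is the concentration reducing viability to 50% of DMSO vehicle control.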

BaF3-BCR/ABL = target: T2, BaF3-BCR/ABL (Homo sapiens, UniProt P00519); assay: as above; type: cell-based, murine; conditions: 48 hours, cell viability, read-out: BCR/ABL IC50
T2 construct: fused on or other part: P11274 (Breakpoint cluster region protein)
Summary of the method: as §2

[1] = tested on: Ba/F3 cells expressing FLT3-ITD oncoprotein (ITD); assay: Proliferation of FLT3-ITD expressing Ba/F3 cells; type: cell-based, murine
Experimental: as §1

BaF3-TEL-INSR = target: T3, BaF3-TEL-INSR (Homo sapiens, UniProt P06213); assay: Antiproliferative activity, kinase-dependent Ba/F3 cells (MTT/MTS); type: cell-based, murine; conditions: 48 hours, cell viability, read-out: Tel-INSR IC50
T3 construct: fused on or other part: P41212 (Transcription factor ETV6)
T3 sequence (P06213 whole entry, stated change not applied, the tested form may be a part): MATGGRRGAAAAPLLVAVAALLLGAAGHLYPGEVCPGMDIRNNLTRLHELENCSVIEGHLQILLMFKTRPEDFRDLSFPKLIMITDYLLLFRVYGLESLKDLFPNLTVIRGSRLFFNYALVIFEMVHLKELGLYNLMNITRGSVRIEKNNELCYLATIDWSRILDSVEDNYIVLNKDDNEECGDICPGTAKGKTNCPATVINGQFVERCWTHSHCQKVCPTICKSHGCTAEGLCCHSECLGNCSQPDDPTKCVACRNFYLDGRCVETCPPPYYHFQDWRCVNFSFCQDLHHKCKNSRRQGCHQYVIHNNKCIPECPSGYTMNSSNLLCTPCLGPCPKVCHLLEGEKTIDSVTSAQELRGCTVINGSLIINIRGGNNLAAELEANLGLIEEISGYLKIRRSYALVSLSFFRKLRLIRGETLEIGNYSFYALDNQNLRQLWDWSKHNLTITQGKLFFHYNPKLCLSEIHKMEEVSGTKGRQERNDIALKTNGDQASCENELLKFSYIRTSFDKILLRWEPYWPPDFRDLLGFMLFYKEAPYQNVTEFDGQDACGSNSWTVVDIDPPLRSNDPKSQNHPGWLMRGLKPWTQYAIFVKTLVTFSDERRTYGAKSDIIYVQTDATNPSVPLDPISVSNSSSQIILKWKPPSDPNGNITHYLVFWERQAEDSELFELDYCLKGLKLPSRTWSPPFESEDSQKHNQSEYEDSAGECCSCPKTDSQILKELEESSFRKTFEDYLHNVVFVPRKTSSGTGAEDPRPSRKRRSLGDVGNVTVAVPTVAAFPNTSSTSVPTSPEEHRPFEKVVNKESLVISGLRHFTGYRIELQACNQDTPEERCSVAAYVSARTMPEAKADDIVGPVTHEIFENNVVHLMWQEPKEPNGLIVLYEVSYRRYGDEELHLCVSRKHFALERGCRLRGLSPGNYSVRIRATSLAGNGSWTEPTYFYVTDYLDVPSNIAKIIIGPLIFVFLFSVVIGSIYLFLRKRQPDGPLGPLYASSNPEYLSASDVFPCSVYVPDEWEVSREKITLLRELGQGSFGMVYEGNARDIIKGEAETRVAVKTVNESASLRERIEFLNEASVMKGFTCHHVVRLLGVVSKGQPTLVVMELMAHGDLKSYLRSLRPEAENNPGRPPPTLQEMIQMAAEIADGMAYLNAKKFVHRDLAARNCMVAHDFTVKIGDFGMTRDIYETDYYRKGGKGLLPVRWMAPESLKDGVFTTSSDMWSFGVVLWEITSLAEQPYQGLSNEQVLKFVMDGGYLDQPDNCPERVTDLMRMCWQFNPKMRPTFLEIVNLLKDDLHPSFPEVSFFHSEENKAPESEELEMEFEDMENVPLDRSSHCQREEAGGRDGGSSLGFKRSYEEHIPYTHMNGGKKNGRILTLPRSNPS
Summary of the method: (§3)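 Murine Ba/F3 cells transformed with the indicated TEL- or EML4-fusion kinases, seeded at 20,000 cells/well in RPMI/10% FCS. Viability by MTT/MTS; IC50 as concentration reducing viability to 50% of DMSO vehicle control.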

BaF3-TEL-HCK = target: T4, BaF3-TEL-HCK (Homo sapiens, UniProt P08631); assay: as above; type: cell-based, murine; conditions: 48 hours, cell viability, read-out: Tel-HCK IC50
T4 construct: fused on or other part: P41212 (Transcription factor ETV6)
T4 sequence (P08631 whole entry, change not shown, the tested form may be a part): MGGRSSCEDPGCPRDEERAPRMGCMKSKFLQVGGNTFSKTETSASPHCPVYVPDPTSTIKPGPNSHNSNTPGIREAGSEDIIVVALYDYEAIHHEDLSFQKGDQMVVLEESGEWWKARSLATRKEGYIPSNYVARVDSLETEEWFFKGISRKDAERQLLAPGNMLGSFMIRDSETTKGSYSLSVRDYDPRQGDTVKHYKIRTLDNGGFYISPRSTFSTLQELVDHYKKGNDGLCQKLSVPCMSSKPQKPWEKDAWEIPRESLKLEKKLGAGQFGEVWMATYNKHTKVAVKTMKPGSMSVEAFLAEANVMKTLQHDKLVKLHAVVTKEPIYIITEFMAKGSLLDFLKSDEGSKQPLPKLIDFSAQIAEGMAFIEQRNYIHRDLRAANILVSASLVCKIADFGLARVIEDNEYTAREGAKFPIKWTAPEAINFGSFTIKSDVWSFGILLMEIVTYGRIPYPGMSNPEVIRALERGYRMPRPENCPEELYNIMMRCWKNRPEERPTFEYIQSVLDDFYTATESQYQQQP
Summary of the method: as §3

BaF3-TEL-LYN = target: T5, BaF3-TEL-LYN (Homo sapiens, UniProt P07948); assay: as above; type: cell-based, murine; conditions: 48 hours, cell viability, read-out: tel-LYN IC50
T5 construct: fused on or other part: P41212 (Transcription factor ETV6)
T5 sequence (P07948 whole entry, change not shown, the tested form may be a part): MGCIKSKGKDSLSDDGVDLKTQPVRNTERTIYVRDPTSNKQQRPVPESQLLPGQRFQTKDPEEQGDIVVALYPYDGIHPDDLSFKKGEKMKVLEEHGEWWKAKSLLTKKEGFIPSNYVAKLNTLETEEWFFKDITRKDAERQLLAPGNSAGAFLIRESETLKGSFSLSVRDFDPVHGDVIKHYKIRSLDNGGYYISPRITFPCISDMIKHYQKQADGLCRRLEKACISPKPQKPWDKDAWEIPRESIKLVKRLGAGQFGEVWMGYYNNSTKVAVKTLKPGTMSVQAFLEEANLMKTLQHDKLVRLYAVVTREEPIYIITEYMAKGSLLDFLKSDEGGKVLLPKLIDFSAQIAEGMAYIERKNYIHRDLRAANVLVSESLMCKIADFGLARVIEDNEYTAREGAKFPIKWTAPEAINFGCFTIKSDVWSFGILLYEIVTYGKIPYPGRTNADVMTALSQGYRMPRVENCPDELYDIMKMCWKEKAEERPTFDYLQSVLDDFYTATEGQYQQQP
Summary of the method: as §3

BaF3-TEL-TIE1 = target: T6, BaF3-TEL-TIE1 (Homo sapiens, UniProt P35590); assay: as above; type: cell-based, murine; conditions: 48 hours, cell viability, read-out: tel-TIE1 IC50
T6 construct: fused on or other part: P41212 (Transcription factor ETV6)
T6 sequence (P35590 whole entry, change not shown, the tested form may be a part): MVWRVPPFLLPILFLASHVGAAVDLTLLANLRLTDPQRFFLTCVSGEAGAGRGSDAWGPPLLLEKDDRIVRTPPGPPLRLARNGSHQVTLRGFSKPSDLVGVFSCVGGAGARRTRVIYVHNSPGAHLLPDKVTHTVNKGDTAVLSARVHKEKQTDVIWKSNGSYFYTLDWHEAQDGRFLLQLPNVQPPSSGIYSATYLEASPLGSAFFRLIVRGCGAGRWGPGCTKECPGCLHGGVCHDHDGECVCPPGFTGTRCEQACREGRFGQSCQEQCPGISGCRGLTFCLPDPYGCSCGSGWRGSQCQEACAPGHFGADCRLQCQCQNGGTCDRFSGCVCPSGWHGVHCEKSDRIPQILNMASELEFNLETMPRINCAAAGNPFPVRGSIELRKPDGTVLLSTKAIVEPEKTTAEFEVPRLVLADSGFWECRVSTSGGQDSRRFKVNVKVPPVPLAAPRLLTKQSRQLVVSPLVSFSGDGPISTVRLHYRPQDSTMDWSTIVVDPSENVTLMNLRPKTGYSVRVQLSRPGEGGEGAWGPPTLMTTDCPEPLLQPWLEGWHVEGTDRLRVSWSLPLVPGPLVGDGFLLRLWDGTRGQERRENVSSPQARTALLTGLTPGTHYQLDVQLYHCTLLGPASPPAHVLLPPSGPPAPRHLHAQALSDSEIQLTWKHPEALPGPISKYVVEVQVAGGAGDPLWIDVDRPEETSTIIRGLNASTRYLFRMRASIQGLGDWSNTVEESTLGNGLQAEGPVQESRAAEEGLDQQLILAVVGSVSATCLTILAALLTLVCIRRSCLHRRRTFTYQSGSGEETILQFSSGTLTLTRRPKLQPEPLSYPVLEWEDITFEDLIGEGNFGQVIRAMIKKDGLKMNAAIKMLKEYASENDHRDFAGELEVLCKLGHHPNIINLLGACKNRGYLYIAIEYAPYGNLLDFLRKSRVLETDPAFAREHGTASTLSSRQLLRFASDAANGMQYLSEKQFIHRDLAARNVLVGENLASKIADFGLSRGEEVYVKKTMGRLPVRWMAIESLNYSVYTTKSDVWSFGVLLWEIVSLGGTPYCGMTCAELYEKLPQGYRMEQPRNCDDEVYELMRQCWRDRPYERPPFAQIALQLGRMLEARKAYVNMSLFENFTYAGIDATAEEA
Summary of the method: as §3

[2] = tested on: NCI-H1975 and HCC827 cell lines; assay: Lung adenocarcinoma cell proliferation; type: cell-based; conditions: FIG. 4
Experimental: The ability of IA-9 to treat lung adenocarcinoma was tested using the NCI-H1975 and HCC827 cell lines. Both cell lines harbor at least EGFR and Ras mutations and are multi-drug resistant. Cell proliferation was tested using methods described herein.

BaF3-NRASD12 = assay: Oncogenic RAS dependent cell proliferation (CellTiter Glo); type: cell-based, murine; conditions: Mus musculus, BaF3-NRASD12 cells, 48 hours, read-out: NRas-BaF3 IC50
Summary of the method: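 BaF/3 cells transformed with NRASD12 or KRASD12, plus parental BaF/3, seeded at 5000 cells/well. Viability read by CellTiter-Glo luminescence, reagent diluted 1:4 in PBS, with vehicle and cell-free background controls.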

FLT3 = FLT3 (Homo sapiens, UniProt P36888); assay: KINOMEscan competition binding
Sequence of FLT3 (P36888 27-993): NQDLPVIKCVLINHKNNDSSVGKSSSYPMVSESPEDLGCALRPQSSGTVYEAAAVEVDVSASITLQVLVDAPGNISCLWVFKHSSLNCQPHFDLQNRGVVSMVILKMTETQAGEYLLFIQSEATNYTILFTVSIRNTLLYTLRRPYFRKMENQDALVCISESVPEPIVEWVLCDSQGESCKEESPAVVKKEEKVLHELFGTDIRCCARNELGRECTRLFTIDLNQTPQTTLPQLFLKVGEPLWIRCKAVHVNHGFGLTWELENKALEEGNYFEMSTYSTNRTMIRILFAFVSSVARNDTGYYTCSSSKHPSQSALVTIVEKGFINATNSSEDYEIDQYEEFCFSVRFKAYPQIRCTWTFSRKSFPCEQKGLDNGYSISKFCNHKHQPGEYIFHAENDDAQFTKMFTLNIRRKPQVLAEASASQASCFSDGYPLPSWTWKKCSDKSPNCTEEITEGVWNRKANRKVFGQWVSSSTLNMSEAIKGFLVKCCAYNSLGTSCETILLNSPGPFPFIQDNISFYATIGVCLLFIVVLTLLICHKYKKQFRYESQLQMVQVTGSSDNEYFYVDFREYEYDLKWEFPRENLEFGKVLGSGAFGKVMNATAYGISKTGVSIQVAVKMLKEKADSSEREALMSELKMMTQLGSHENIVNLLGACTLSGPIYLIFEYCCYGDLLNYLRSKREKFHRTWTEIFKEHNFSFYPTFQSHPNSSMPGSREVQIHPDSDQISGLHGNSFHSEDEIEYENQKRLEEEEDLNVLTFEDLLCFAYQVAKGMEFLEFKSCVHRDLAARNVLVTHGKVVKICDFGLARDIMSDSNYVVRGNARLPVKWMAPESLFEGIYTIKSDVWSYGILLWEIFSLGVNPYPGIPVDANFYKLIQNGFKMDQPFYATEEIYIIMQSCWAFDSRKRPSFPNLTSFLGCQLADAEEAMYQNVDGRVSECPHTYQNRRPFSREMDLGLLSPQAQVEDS
Experimental: KINOMEscan™ is based on a competition binding assay that quantitatively measures the ability of a compound to compete with an immobilized, active-site directed ligand (Fabian et al. (2005) Nat. Biotechnol. 23, 329; Karaman et al. (2008) Nat. Biotechnol. 26, 127). The compound was screened at 10 μM, and results for primary screen binding interactions are reported as ‘% Ctrl’, where lower numbers indicate stronger hits. The results for kinases targets with a % Ctrl less than 30 can be seen in Table 2.
FLT3 is a receptor tyrosine kinase; its activating mutations are found in 30% human acute myeloid leukemia (AML)^5.

Wt-BaF3 = assay: Parental Ba/F3 cell proliferation (CellTiter Glo); type: cell-based, murine; conditions: Mus musculus, parental BaF/3 cells, 48 hours
Summary of the method: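 Untransformed murine Ba/F3 cells, kept on 15% WEHI conditioned medium as IL3 source, were seeded at 5000 cells/well with compound. Viability was read by luminescence using CellTiter Glo diluted 1:4 in PBS, with no-cell background and vehicle controls.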

In the case of `Cc1ccc(Nc2ncc3c(n2)N(C)CN(c2cc(NC(=O)c4cccc(C(F)(F)F)c4)ccc2C)C3)cn1` [IA-9, N-(4-methyl-3-(1-methyl-7-((6-methylpyridin-3-yl)amino)-1,4-dihydropyrimido[4,5-d]pyrimidin-3(2H)-yl)phenyl)-3-(trifluoromethyl)benzamide], the “suppression of growth of MV-4-11” value (MV-4-11) was “much more effectively than did Dasatinib”, the GI50 (BaF3-BCR/ABL-T315I) was 0.651 µM and the GI50 (BaF3-BCR/ABL) was 0.005 µM. The “potential therapeutic window (ITD cells with vs without IL-3)” value ([1]; FLT3-ITD transformed cells, IL-3 rescue) was 80 fold, the “inhibition of proliferation/viability of ITD cells” value ([1]; absence of IL-3, FIG. 5A) was “effectively inhibits the proliferation/viability of ITD cells” and the “proliferation/survival of ITD cells on addition of IL-3” value ([1]; presence of IL-3, FIG. 5A) was “largely rescues the proliferation/survival of the ITD cells”. For the same molecule, the GI50 (BaF3-TEL-INSR) was 0.869 µM, the GI50 (BaF3-TEL-HCK) was 0.639 µM and the GI50 (BaF3-TEL-LYN) was 0.225 µM. The GI50 (BaF3-TEL-TIE1) was 0.519 µM, the “reduction of proliferation of lung adenocarcinoma cells” value [2] was “reduce the proliferation of lung adenocarcinoma cells” and the pIC50 (BaF3-NRASD12) was 6.42. For the same molecule, the remaining binding at 10 µM (FLT3; FLT3, 10 μM, read-out: Percent Control) was 0.2%, the “binding to FLT3 kinase (in words)” value (FLT3; KINOMEscan data) was “bind(s) FLT3 kinase strongly” and the pIC50 (Wt-BaF3) was 5.27.
